Assay results: patent US20040242693A1, “Optically active mandelic acid and its derivative, and method for crystallization thereof” (priority 2001, published 2004)

Assays:
Type in all cases: physicochemical
[1] = Measurement of water content (Karl Fischer method); conditions: for Water content: dried crystals, Karl Fischer
Experimental: Measurement of Water Content
Water content was measured by the Karl Fischer method.

[2] = Measurement of filling (packing) density; conditions: natural drop into 50 ml measuring cylinder
Experimental: Measurement of Filling (Packing) Density
10 to 20 g of each of the crystals obtained in the above Examples and Comparative examples was weighed, and it was passed through a funnel with a diameter of 20 mm to naturally drop into a 50 ml measuring cylinder, so that the weight and volume of the crystals were measured and the filling density was calculated.

[3] = Measurement of compression rate; conditions: (volume 1−volume 2)/volume 1
Experimental: Measurement of Compression Rate
An approximately 7-cm^3 chloromandelic acid crystal was passed through a funnel with a diameter of 9 mm, and it was naturally dropped into a 10 ml measuring cylinder from a height of 20 cm, so that the volume of the crystals was measured (volume 1). Thereafter, the crystals in the measuring cylinder were compressed with a glass rod until their volume was not reduced, and the volume after the compression was measured (volume 2). Compression rate was calculated according to the following formula.
Compression rate=(volume 1−volume 2)/volume 1

[4] = Measurement of particle size distribution (sieving); conditions: for Particle size distribution 300 to 1,000 μm: sieve fraction 300 to 1,000 μm; for Particle size distribution <300 μm: sieve fraction <300 μm; for Particle size distribution 1,000 μm<: sieve fraction above 1,000 μm
Experimental: Measurement of Particle Size Distribution
The crystals were shifted using a microtype electromagnetic vibrating shifter (M-2 type, manufactured by Tsutsui Rikagaku Kikai Co., Ltd.), and their weight was measured, so that their particle size distribution was obtained. 20 g of the crystals was placed on a sieve with a mesh of 1,000 μm, and another sieve with a mesh of 300 μm was placed below the above sieve followed by vibration for 10 minutes.

[5] = Adhesiveness (crystals adhering to test tube wall); conditions: weight of adhering crystals / weight filled, test tube 16 mm
Experimental: Chloromandelic acid crystals were naturally dropped in a dry test tube having an inside diameter of 16 mm, so that the height of the crystals became approximately 10 cm. Thereafter, the test tube containing chloromandelic acid crystals was slowly inverted, so that the test tube was completely turned upside down and the crystals were dropped. Thereafter, the weight of the test tube was measured, and the weight of chloromandelic acid crystals adhered to the inner wall of the test tube was obtained. The ratio (%) of the weight of the adhering crystals to the weight of the initially filled chloromandelic acid crystals was defined as an index of adhesiveness.

[6] = Flowability (flow limit diameter through glass funnels); conditions: minimum funnel inside diameter without blockage in 5 tests, 15 g crystals
Experimental: Glass funnels obtained by connecting glass tubes (cylindrical portions) having inside diameters of 4, 5, 6, 8, 9 and 11 mm with the edges of cones with apical angles of 60° were used. The outlet of each funnel (outlet of cylindrical portion) was closed. […] During this process, the funnel should not be shaken, and chloromandelic acid crystals should not be pushed into the funnel by compression. Thereafter, each funnel containing chloromandelic acid crystals was left at rest, the outlet of the cylindrical portion of each funnel was opened, and the crystals were naturally dropped from the outlets. This operation was carried out 5 times, using each of the above described funnels having cylindrical portions with inside diameters of 4, 5, 6, 8, 9 and 11 mm. Flow limit diameter (mm) was defined as a minimum inside diameter capable of naturally dropping the total amount of chloromandelic acid crystals in all of the above 5 tests with no blockage in the funnels. The flow limit diameter was defined as an index of fluidity.

Appearance of crystals = conditions: dried crystals
Experimental: Subsequently, the (R)-2-chloromandelic acid crystals obtained in Examples 1 to 6 and Comparative examples 1 and 2 were measured regarding appearance, water content, filling density, compression rate, and particle size distribution. Each of the above items was measured according to the following methods.

SMILES	Water content [1]	Filling density [2]	Compression rate [3]	Particle size distribution 300 to 1,000 μm [4]	Particle size distribution <300 μm [4]	Particle size distribution 1,000 μm< [4]	Adhesion rate [5]	Flow limit diameter [6]	Appearance (Appearance of crystals)	Water content of crystal wet product ([1]; wet product after filtration and washing, before drying)
O=C(O)[C@H](O)c1ccccc1Cl [Example 1, (R)-2-chloromandelic acid]	0.046 wt %	0.65 g/mL	0.03	73.5 weight %	15.5 weight %	11.0 weight %	0.057%	5 mm	Granular	
O=C(O)[C@H](O)c1ccccc1Cl [Example 2, (R)-2-chloromandelic acid]	0.049 wt %	0.63 g/mL	0.03	73.2 weight %	18.2 weight %	8.0 weight %	0.061%	5 mm	Granular	
O=C(O)[C@H](O)c1ccccc1Cl [Example 3, (R)-2-chloromandelic acid]	0.058 wt %	0.63 g/mL	0.03	71.0 weight %	16.6 weight %	12.4 weight %	0.058%	5 mm	Granular	
O=C(O)[C@H](O)c1ccccc1Cl [Example 4, (R)-2-chloromandelic acid]	0.062 wt %	0.68 g/mL	0.03	72.2 weight %	17.3 weight %	10.5 weight %	0.110%	5 mm	Granular	10 % by weight
O=C(O)[C@H](O)c1ccccc1Cl [Example 5, (R)-2-chloromandelic acid]	0.076 wt %	0.68 g/mL	0.03	73.1 weight %	18.4 weight %	8.5 weight %	0.130%	5 mm	Granular	

Second part, the compound after the results:

Water content [1]	Filling density [2]	Compression rate [3]	Particle size distribution 300 to 1,000 μm [4]	Particle size distribution <300 μm [4]	Particle size distribution 1,000 μm< [4]	Adhesion rate [5]	Flow limit diameter [6]	Appearance (Appearance of crystals)	Water content of crystal wet product ([1]; wet product after filtration and washing, before drying)	SMILES
0.080 wt %	0.64 g/mL	0.03	71.3 weight %	19.0 weight %	9.7 weight %	0.140%	5 mm	Granular		O=C(O)[C@H](O)c1ccccc1Cl [Example 6, (R)-2-chloromandelic acid]
0.110 wt %	0.68 g/mL	0.04	46.5 weight %	46.2 weight %	7.3 weight %	0.830%	9 mm	Fine		O=C(O)[C@H](O)c1ccccc1Cl [compound 1, (R)-2-chloromandelic acid, reference compound]
0.005 wt %	0.29 g/mL	0.62	71.3 weight %	24.6 weight %	4.1 weight %	0.500%	11 mm	Scale		O=C(O)[C@H](O)c1ccccc1Cl [compound 2, (R)-2-chloromandelic acid, reference compound]
